This note sets out measurements from paper PMC4065339, “Characterization of Family D DNA polymerase from Thermococcus sp. 9°N” (Extremophiles, 2014).

Assay [1] has as its target T1, polB (9°Nm DNA polymerase; 9°N/E143D) (Thermococcus sp. 9oN-7, UniProt Q56366, E143D).
T1 construct: gene pol; commercial recombinant 9°Nm DNA polymerase (New England Biolabs), E143D variant in exonuclease domain; single subunit
T1 sequence (Q56366 1-775 E143D): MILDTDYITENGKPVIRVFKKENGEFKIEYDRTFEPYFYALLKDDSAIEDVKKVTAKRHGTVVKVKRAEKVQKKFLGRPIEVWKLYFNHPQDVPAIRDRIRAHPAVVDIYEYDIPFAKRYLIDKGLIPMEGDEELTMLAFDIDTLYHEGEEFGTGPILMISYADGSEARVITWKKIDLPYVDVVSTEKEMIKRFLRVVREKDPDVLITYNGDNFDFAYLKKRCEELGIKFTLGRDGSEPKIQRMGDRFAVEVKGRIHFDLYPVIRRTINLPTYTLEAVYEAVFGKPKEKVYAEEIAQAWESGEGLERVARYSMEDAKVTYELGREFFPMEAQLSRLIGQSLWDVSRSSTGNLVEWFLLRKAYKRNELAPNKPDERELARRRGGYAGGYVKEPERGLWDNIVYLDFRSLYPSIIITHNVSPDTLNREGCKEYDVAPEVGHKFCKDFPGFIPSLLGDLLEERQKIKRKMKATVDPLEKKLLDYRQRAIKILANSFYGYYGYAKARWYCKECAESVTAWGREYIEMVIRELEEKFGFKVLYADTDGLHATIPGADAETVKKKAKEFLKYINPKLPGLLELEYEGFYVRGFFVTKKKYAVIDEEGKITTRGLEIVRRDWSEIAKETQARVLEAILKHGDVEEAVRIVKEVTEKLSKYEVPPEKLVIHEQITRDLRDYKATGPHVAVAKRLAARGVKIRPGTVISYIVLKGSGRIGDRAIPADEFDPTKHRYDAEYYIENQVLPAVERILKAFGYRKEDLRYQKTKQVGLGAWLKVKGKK
Description: [α-32P]-dCTP incorporation into primed M13mp18, acid precipitation. It is filed as biochemical.

The test system of assay [2] is T2, polD (heterodimer of polD-S and polD-L).
T2 construct: gene polC; E. coli T7 Express/pRIL, untagged, co-expressed plasmids pERE1 and pERF5, co-purified heterodimer; with DNA polymerase II small subunit
The assay is described as above. Particulars: 10 nM enzyme, 15 nM primed M13mp18, 50 µM dNTPs, ThermoPol buffer pH 8.8 (2 mM MgSO4), 65 °C, 20 min; read-out: not inhibited by up to 0.4 mM. In kind it is biochemical, Thermococcus sp. 9°N.

Regarding `C[C@@]1(CO)[C@H](O)CC[C@@]2(C)[C@H]1CC[C@H]1C[C@@H]3C[C@@]12CC[C@]3(O)CO` [aphidicolin], the IC50 was 300 µM in assay [1] and > 400 µM in assay [2].
